The record followed here is the supplement of paper PMC10307832.

Common to all, as to assay: relative viability (nuclei count vs DMSO), 5 days (fraction); higher = more cells survive
Compound in assay [1]: Cc1cnc(CNC(=O)c2c(=O)c3ccc(N4CCCN(C)CC4)nc3n3c2sc2ccccc23)cn1 [CX-5461] + N=C(N)NC(=N)NCCc1ccccc1 [Phenformin] (partner 250 µM)
The essentials:
(§1)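 Nuclei were stained with Hoechst during a one-step fixation (final 0.05% Triton X-100, 1% formaldehyde, 1 ug/ml Hoechst) carried out 5 days after dosing, then counted on 4× images. The cells, lung cancer lines in 1536-well plates, had been dosed by pin tool the day after seeding with one drug alone or a fixed anchor-drug dose plus five library-drug doses (not always all listed) in √10 steps. Relative viability is the nuclei count in treated wells divided by that in vehicle wells, and each value is the median of duplicate plates.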

Compound in assay [2]: O=C(Nc1cc(C(F)(F)F)cc(C(F)(F)F)c1)c1cc(Cl)ccc1O [IMD-0354] + O=C(CCCCCCC(=O)Nc1ccccc1)NO [Vorinostat] (partner 1 µM)
The essentials:
as §1

Compound in assay [3]: O=C(Nc1cc(C(F)(F)F)cc(C(F)(F)F)c1)c1cc(Cl)ccc1O [IMD-0354] + CC(=O)Nc1cccc(-n2c(=O)n(C3CC3)c(=O)c3c(Nc4ccc(I)cc4F)n(C)c(=O)c(C)c32)c1 [Trametinib] (partner 0.02 µM)
In short, it runs like this: as §1

Compound in assay [4]: O=C(Nc1cc(C(F)(F)F)cc(C(F)(F)F)c1)c1cc(Cl)ccc1O [IMD-0354] + CS(=O)(=O)N1CCN(Cc2cc3nc(-c4cccc5[nH]ncc45)nc(N4CCOCC4)c3s2)CC1 [Pictilisib] (partner 1 µM)
The essentials: as §1

For LU99A, the relative viability in assay [1] (first compound 0.01 µM) amounted to 0.911; in assay [1] (first compound 0.03162 µM), 0.855; in assay [1] (first compound 0.1 µM), 0.821; in assay [1] (first compound 0.3162 µM), 0.528; in assay [1] (first compound 1 µM), 0.21; in assay [2] (first compound 0.04 µM), 0.417. Further, the relative viability in assay [2] (first compound 0.1265 µM) was found to be 0.498; in assay [2] (first compound 0.4 µM) it was 0.375; in assay [2] (first compound 1.265 µM) it was 0.2; in assay [2] (first compound 4 µM), 0.162; in assay [3] (first compound 0.04 µM) it was 0.434; in assay [3] (first compound 0.1265 µM), 0.475. Moreover, the relative viability in assay [3] (first compound 0.4 µM) was 0.442; in assay [3] (first compound 1.265 µM) it was 0.505; in assay [3] (first compound 4 µM) it was 0.206; in assay [4] (first compound 0.04 µM), 0.287; in assay [4] (first compound 0.1265 µM), 0.304; in assay [4] (first compound 0.4 µM), 0.357. Moreover, the relative viability turned out to be 0.152 in assay [4] (first compound 1.265 µM) and 0.156 in assay [4] (first compound 4 µM).

Take LXF-289: the relative viability in assay [1] (first compound 0.01 µM) is 0.523; in assay [1] (first compound 0.03162 µM), 0.526; in assay [1] (first compound 0.1 µM) it was 0.521; in assay [1] (first compound 0.3162 µM), 0.255; in assay [1] (first compound 1 µM), 0.276; in assay [2] (first compound 0.04 µM), 0.764. The relative viability in assay [2] (first compound 0.1265 µM) turned out to be 0.735; in assay [2] (first compound 0.4 µM), 0.612; in assay [2] (first compound 1.265 µM), 0.261; in assay [2] (first compound 4 µM), 0.137; in assay [3] (first compound 0.04 µM) it was 0.721; in assay [3] (first compound 0.1265 µM) it was 0.62. Further, the relative viability was 0.643 in assay [3] (first compound 0.4 µM); 0.5 in assay [3] (first compound 1.265 µM); 0.207 in assay [3] (first compound 4 µM); 0.798 in assay [4] (first compound 0.04 µM); 0.787 in assay [4] (first compound 0.1265 µM); 0.524 in assay [4] (first compound 0.4 µM). Also, the relative viability turned out to be 0.157 in assay [4] (first compound 1.265 µM) and 0.0919 in assay [4] (first compound 4 µM).

As to NCI-H23, the relative viability in assay [1] (first compound 0.01 µM) is 0.769; in assay [1] (first compound 0.03162 µM), 0.875; in assay [1] (first compound 0.1 µM), 0.834; in assay [1] (first compound 0.3162 µM), 0.803; in assay [1] (first compound 1 µM), 0.406; in assay [2] (first compound 0.04 µM) it was 0.664. The relative viability in assay [2] (first compound 0.1265 µM) stood at 0.745; in assay [2] (first compound 0.4 µM) it was 0.289; in assay [2] (first compound 1.265 µM), 0.172; in assay [2] (first compound 4 µM) it was 0.192; in assay [3] (first compound 0.04 µM), 0.456; in assay [3] (first compound 0.1265 µM), 0.344. Moreover, the relative viability came to 0.28 in assay [3] (first compound 0.4 µM); 0.144 in assay [3] (first compound 1.265 µM); 0.162 in assay [3] (first compound 4 µM); 0.53 in assay [4] (first compound 0.04 µM); 0.472 in assay [4] (first compound 0.1265 µM); 0.306 in assay [4] (first compound 0.4 µM). The relative viability turned out to be 0.188 in assay [4] (first compound 1.265 µM) and 0.165 in assay [4] (first compound 4 µM).

Regarding NCI-H522, the relative viability in assay [1] (first compound 0.01 µM) was 0.653; in assay [1] (first compound 0.03162 µM), 0.614; in assay [1] (first compound 0.1 µM), 0.654; in assay [1] (first compound 1 µM), 0.593; in assay [2] (first compound 0.04 µM) it was 1.02; in assay [2] (first compound 0.1265 µM), 0.865. The relative viability in assay [2] (first compound 0.4 µM) was found to be 0.637; in assay [2] (first compound 1.265 µM), 0.757; in assay [2] (first compound 4 µM), 0.449; in assay [3] (first compound 0.04 µM) it was 0.749; in assay [3] (first compound 0.1265 µM), 0.778; in assay [3] (first compound 0.4 µM), 0.732. In addition, the relative viability was determined as 0.6 in assay [3] (first compound 1.265 µM) and 0.454 in assay [3] (first compound 4 µM).

As for NCI-H1299, the relative viability in assay [4] (first compound 0.04 µM) is 0.753; in assay [4] (first compound 0.1265 µM), 0.717; in assay [4] (first compound 0.4 µM) it was 0.369; in assay [4] (first compound 1.265 µM), 0.0957; in assay [4] (first compound 4 µM), 0.0657.

In the case of NCI-H1563, the relative viability turned out to be 0.663 in assay [1] (first compound 0.01 µM); 0.677 in assay [1] (first compound 0.03162 µM); 0.531 in assay [1] (first compound 0.1 µM); 0.627 in assay [1] (first compound 0.3162 µM); 0.457 in assay [1] (first compound 1 µM); 0.635 in assay [4] (first compound 0.04 µM). The relative viability in assay [4] (first compound 0.1265 µM) amounted to 0.704; in assay [4] (first compound 0.4 µM), 0.595; in assay [4] (first compound 1.265 µM), 0.387; in assay [4] (first compound 4 µM), 0.318.

NCI-H1648: the relative viability in assay [2] (first compound 0.04 µM) is 0.303; in assay [2] (first compound 0.1265 µM), 0.694; in assay [2] (first compound 0.4 µM), 0.289; in assay [2] (first compound 1.265 µM), 0.617; in assay [2] (first compound 4 µM), 0.3; in assay [3] (first compound 0.04 µM), 0.435. The relative viability came out at 0.504 in assay [3] (first compound 0.1265 µM), 0.369 in assay [3] (first compound 0.4 µM), 0.545 in assay [3] (first compound 1.265 µM) and 0.271 in assay [3] (first compound 4 µM).

NCI-H1703: the relative viability in assay [4] (first compound 0.04 µM) worked out at 0.273; in assay [4] (first compound 0.1265 µM) it was 0.241; in assay [4] (first compound 0.4 µM), 0.235; in assay [4] (first compound 1.265 µM), 0.157; in assay [4] (first compound 4 µM), 0.123.

Turning to NCI-H1792, the relative viability in assay [1] (first compound 0.01 µM) is 0.387; in assay [1] (first compound 0.03162 µM), 0.198; in assay [1] (first compound 0.1 µM) it was 0.114; in assay [1] (first compound 0.3162 µM), 0.401; in assay [1] (first compound 1 µM), 0.111; in assay [3] (first compound 0.04 µM) it was 0.496. In addition, the relative viability in assay [3] (first compound 0.1265 µM) stood at 0.564; in assay [3] (first compound 0.4 µM), 0.221; in assay [3] (first compound 1.265 µM) it was 0.292; in assay [3] (first compound 4 µM) it was 0.135; in assay [4] (first compound 0.04 µM) it was 0.298; in assay [4] (first compound 0.1265 µM), 0.225. In addition, the relative viability in assay [4] (first compound 0.4 µM) was found to be 0.622; in assay [4] (first compound 1.265 µM) it was 0.203; in assay [4] (first compound 4 µM), 0.204.

With NCI-H2342, the relative viability in assay [1] (first compound 0.01 µM) is 0.645; in assay [1] (first compound 0.03162 µM) it was 0.53; in assay [1] (first compound 0.1 µM), 0.535; in assay [1] (first compound 0.3162 µM), 0.675; in assay [1] (first compound 1 µM), 0.586; in assay [2] (first compound 0.04 µM), 0.769. Further, the relative viability is 0.853 in assay [2] (first compound 0.1265 µM); 0.53 in assay [2] (first compound 0.4 µM); 0.697 in assay [2] (first compound 1.265 µM); 0.364 in assay [2] (first compound 4 µM); 0.763 in assay [3] (first compound 0.04 µM); 0.743 in assay [3] (first compound 0.1265 µM). Moreover, the values for the relative viability in assay [3] (first compound 0.4 µM), in assay [3] (first compound 1.265 µM) and in assay [3] (first compound 4 µM) were 0.731, 0.77 and 0.565, respectively.

For the cell line SW 900, the relative viability in assay [1] (first compound 0.01 µM) was found to be 0.656; in assay [1] (first compound 0.03162 µM), 0.641; in assay [1] (first compound 0.1 µM), 0.743; in assay [1] (first compound 0.3162 µM) it was 0.532; in assay [1] (first compound 1 µM), 0.209; in assay [2] (first compound 0.04 µM), 0.496. Moreover, the relative viability stood at 0.554 in assay [2] (first compound 0.1265 µM); 0.243 in assay [2] (first compound 0.4 µM); 0.227 in assay [2] (first compound 1.265 µM); 0.265 in assay [2] (first compound 4 µM); 0.711 in assay [3] (first compound 0.04 µM); 0.639 in assay [3] (first compound 0.1265 µM). The figures for the relative viability in assay [3] (first compound 0.4 µM), in assay [3] (first compound 1.265 µM) and in assay [3] (first compound 4 µM) were 0.599, 0.154 and 0.212, respectively.
